Data as given in US4468387A, “Pesticidal N-sulfonyl N'-oxalate phosphorodiamido(di)thioates” (Rohm and Haas Company, priority 1982, dated 1984).

Legend:
Type in all cases: in vivo
[1] = test system: Two-spotted spider mite (Tetranychus urticae); test: mite test, sprayed infested bean leaf discs (two-spotted spider mite); settings: 600 ppm; leaf disc spray; percent kill after 24 hours
Text: (§1) A test solution containing 600 ppm of test compound can be made by dissolving the test compound in a solvent (acetone:methanol, 1:1), adding surfactant and then water to give an acetone:methanol:water system of 10:10:80. A 1:1 mixture of an alkylarylpolyetheralcohol (commercially available under the trademark Triton X-155) and a modified phthalic glycerol alkyl resin (commercially available under the trademark Triton B-1956) can be utilized at the equivalent of one ounce per 100 gallons of test solution and a surfactant.
For the mite test, infested bean (Phaseolus limeanus) leaf discs (1.25 inches in diameter) containing about 50 mites are placed in a Petri dish lid on a moistened piece of cotton. The leaves are then sprayed with the test solution using a rotating turntable. They are held for 24 hours and then the percent kill is determined.

[2] = test system: Southern armyworm (Spodoptera eridania); test: armyworm test, sprayed detached bean leaves, third instar southern armyworm larvae; settings: 600 ppm, leaf spray, percent kill after 48 hours
Text: as §1
For the armyworm test, detached bean leaves on pieces of moistened filter paper are sprayed as above for the mite test in similar dishes and allowed to dry. The dishes are infested with 10 third instar southern armyworm larvae. The dishes are covered. After holding for 48 hours, the percent kill is obtained.

[3] = test system: Southern root-knot nematode (Meloidogyne incognita); test: nematode test, inoculated soil, cucumber root knots; settings: about 30 ppm by volume in soil; knots on cucumber roots after about 23 days
Text: as §1
For the nematode test, soil is homogeneously inoculated with a macerated blend of tomato roots heavily knotted with the root knot nematode. Ten milliliters of the test solution are added to 200 milliliters of the inoculated soil in a 16 oz. jar to give a concentration by volume of about 30 ppm. The jar is then shaken to insure thorough mixing, immediately uncapped, and allowed to air for 24 hours. The soil is then placed into a 3 inch plastic pot after which time 3 cucumber (Cucumis sativus) seeds are planted. About 23 days thereafter, the cucumber plants are removed from the soil and the root system examined for the presence of knots. A total of 15 knots or less is considered as a measure of control.

SMILES	Insecticidal Screening Results, % Control, Two-Spotted Mite [1] [%]	Insecticidal Screening Results, % Control, Southern Armyworm [2] [%]	Nema (control of root-knot nematode) [3]
CCSCCOC(=O)C(=O)N(C)P(=O)(SC(C)CC)N(C)S(C)(=O)=O (stereo not drawn) [Example 11, N'-(2-Ethylthioethoxy)carbonylcarbonyl N-methanesulfonyl N,N'-dimethyl S-(1-methylpropyl) phosphorodiamidothioate]	100	100	+ (A total of 15 knots or less is considered as a measure of control)
CCC(C)SP(=O)(N(C)C(=O)C(=O)Oc1ccccc1)N(C)S(C)(=O)=O (stereo not drawn) [Example 6, N-Methanesulfonyl N,N'-dimethyl S-(1-methylpropyl) N'-phenoxycarbonylcarbonyl phosphorodiamidothioate]	100	100	+ (A total of 15 knots or less is considered as a measure of control)
CCC(C)OC(=O)C(=O)N(C)P(=O)(SC(C)CC)N(C)S(C)(=O)=O (stereo not drawn) [Example 9, N-Methanesulfonyl N,N'-dimethyl S-(1-methylpropyl) N'-(1-methylpropyloxy)carbonylcarbonyl phosphorodiamidothioate]	100	100	+ (A total of 15 knots or less is considered as a measure of control)
CCC(C)SP(=O)(N(C)C(=O)C(=O)OC1CCCCC1)N(C)S(C)(=O)=O (stereo not drawn) [Example 4, N'-Cyclohexyloxycarbonylcarbonyl N-methanesulfonyl N,N'-dimethyl S-(1-methylpropyl) phosphorodiamidothioate]	100	30	+ (A total of 15 knots or less is considered as a measure of control)
CCC(C)SP(=O)(N(C)C(=O)C(=O)OCCOC)N(C)S(C)(=O)=O (stereo not drawn) [Example 13, N-Methanesulfonyl N'-(2-methoxyethoxy)carbonylcarbonyl N,N'-dimethyl S-(1-methylpropyl) phosphorodiamidothioate]	100	100	+ (A total of 15 knots or less is considered as a measure of control)
CCC(C)SP(=O)(N(C)C(=O)C(=O)OCc1ccccc1)N(C)S(C)(=O)=O (stereo not drawn) [Example 14, N'-Benzyloxycarbonylcarbonyl N-methanesulfonyl N,N'-dimethyl S-(1-methylpropyl) phosphorodiamidothioate]	100	100	+ (A total of 15 knots or less is considered as a measure of control)
CCCSC(=O)C(=O)N(C)P(=O)(SC(C)CC)N(C)S(C)(=O)=O (stereo not drawn) [Example 7, N-Methanesulfonyl N,N'-dimethyl S-(1-methylpropyl) N'-(propylthio)carbonylcarbonyl phosphorodiamidothioate]	100	100	+ (A total of 15 knots or less is considered as a measure of control)
CCC(C)SP(=O)(N(C)C(=O)C(=O)OCCCl)N(C)S(C)(=O)=O (stereo not drawn) [Example 10, N'-(2-Chloroethoxy)carbonylcarbonyl N-methanesulfonyl N,N'-dimethyl S-(1-methylpropyl) phosphorodiamidothioate]	100	100	+ (A total of 15 knots or less is considered as a measure of control)
CCC(C)SP(=O)(N(C)C(=O)C(=O)OC)N(C)S(C)(=O)=O (stereo not drawn) [Example 2, N-Methanesulfonyl N'-[(methoxycarbonyl)carbonyl] N,N'-dimethyl S-(1-methylpropyl) phosphorodiamidothioate]	100	100	+ (A total of 15 knots or less is considered as a measure of control)
CCC(C)SP(=O)(N(C)C(=O)C(=O)OC(C)C)N(C)S(C)(=O)=O (stereo not drawn) [Example 1, N-Methanesulfonyl N,N'-dimethyl N'-[(1-methylethoxycarbonyl)carbonyl] S-(1-methylpropyl) phosphorodiamidothioate]	100	100	+ (A total of 15 knots or less is considered as a measure of control)
CCC(C)SP(=O)(N(C)C(=O)C(=O)Oc1ccc(SC)cc1)N(C)S(C)(=O)=O (stereo not drawn) [Example 8, N-Methanesulfonyl N,N'-dimethyl S-(1-methylpropyl N'-(4-methylthiophenoxy)carbonylcarbonyl phosphorodiamidothioate]	100	100	+ (A total of 15 knots or less is considered as a measure of control)
CCC(C)SP(=O)(N(C)C(=O)C(=O)SC1CCCCC1)N(C)S(C)(=O)=O (stereo not drawn) [Example 12, N'-(Cyclohexylthio)carbonylcarbonyl N-methansulfonyl N,N'-dimethyl S-(1-methylpropyl) phosphorodiamidothioate]	100	100	+ (A total of 15 knots or less is considered as a measure of control)
CCC(C)SP(=O)(N(C)C(=O)C(=O)OC(C)(C)C)N(C)S(C)(=O)=O (stereo not drawn) [Example 3, N-Methanesulfonyl N,N'-dimethyl N'-[(1,1-dimethylethoxy)carbonylcarbonyl] S-(1-methylpropyl) phosphorodiamidothioate]	100	100	+ (A total of 15 knots or less is considered as a measure of control)
